The source of these data is patent publication US11173156B2, “Solid forms of a kynurenine-3-monooxygenase inhibitor” (CHDI Foundation, Inc., priority 2019, dated 2021).

Bounds are passed on as bounds.

Type in all cases: physicochemical
A short description of data set [1]: Deliquescence of salts/co-crystals during exposure to 75% RH. To be noted: ambient temperature, 3 day exposure; for Observation (deliquescence): visual. On the procedure: The salts identified from the salt/co-crystal screen of Compound I (see section 4 above) were assessed visually for deliquescence during exposure to 75% RH at ambient temperature (Table 5). […] The materials from these experiments were recovered and re-analyzed by XRPD to determine if changes in solid form occurred.

Data set [2] is described as follows: Approximate aqueous solubility of salts/co-crystals (visual, solvent addition method). The following applies: water; for solubility: estimated visually, solvent addition method. The method, then:
(§1) A weighed sample was treated with aliquots of the test solvent at room temperature. The mixture was sonicated between additions to facilitate dissolution. Complete dissolution of the test material was determined by visual inspection. Solubility was estimated based on the total solvent used to provide complete dissolution. Some samples were then heated and observed visually for complete dissolution. The actual solubility may be greater than the value calculated because of the use of solvent aliquots that were too large or due to a slow rate of dissolution. […] If complete dissolution was achieved as a result of only one aliquot addition, the solubility is expressed as “greater than.”

A short description of data set [3]: XRPD analysis of remaining solids from aqueous solubility assessments. The following applies: solids recovered from mother liquor of aqueous solubility assessment. The text has this: Compound I ethylenediamine A+B disproportionated, as peaks similar to those observed for Compound I free acid Material C were observed.
Data set [4] in a line: Solubility of Compound I sodium salt forms in solvents and binary solvent systems. To be noted: thermodynamic from solid, 60° C., read-out: Solubility. On the procedure:
as §1

The nature of data set [5]: Dynamic vapor sorption/desorption (DVS). The method, then:
Moisture sorption/desorption data were collected on a VTI SGA-100 Vapor Sorption Analyzer. NaCl and PVP were used as calibration standards. Samples were not dried prior to analysis. Sorption and desorption data were collected over a range from 5% to 95% RH at 10% RH increments under a nitrogen purge. The equilibrium criterion used for analysis was less than 0.0100% weight change in 5 minutes with a maximum equilibration time of 3 hours. Data were not corrected for the initial moisture content of the samples.

Data set [6] can be described thus: Slurry experiments (form stability). To be noted: for XRPD: room temp. The method, then: Solutions were prepared by adding enough solids to a given solvent so that excess solids were present. The mixture was then agitated in a sealed vial at either ambient or an elevated temperature. After a given amount of time, the solids were isolated for analysis.
The formation and stability of solid forms of the sodium salt of Compound I was further evaluated via slurry experiments. The slurries were formed by combining Compound I sodium Pattern A and a solvent, and allowing the slurry to equilibrate at room temperature. If a free flowing slurry was not achieved, an additional amount of the respective solvent was added before the room temperature equilibration step. All slurries were isolated via centrifuge filtration after five days and twelve days of equilibration. The solids were analyzed by XRPD to check for pattern conversion (Table 13).

The nature of data set [7]: Stability at elevated temperatures (XRPD, HPLC). On the procedure: The stability of Compound I sodium Patterns A, C, and D and Form B, at about 60° C. was evaluated. These forms were weighed into vials covered with a Kimwipe tissue and stored in an oven at 60° C. and ambient pressure. After three days and ten days of exposure, the solids were analyzed by XRPD to check for form conversion. […].

[8] abbreviates: listed as Ethylenediamine B + A.

What is called solubility is the concentration that dissolves in the medium under given conditions. With `O=C(O)c1cc(-c2ccc(OC3CC3)c(Cl)c2)ncn1` [Compound I potassium Material A, 6-(3-chloro-4-cyclopropoxyphenyl)pyrimidine-4-carboxylic acid], the “Observation (deliquescence)” value in data set [1] is “no deliquescence”. In data set [2], the “aqueous solubility (in words)” value is “suitable aqueous solubility”. In addition, the solubility in data set [2] (listed as Potassium A) was <4 mg/mL. The “Result (XRPD of remaining solids)” value is on record as “converted to a new material” in data set [3] and “broad reflections” in data set [3] (listed as Potassium A).

Take `O=C(O)c1cc(-c2ccc(OC3CC3)c(Cl)c2)ncn1` [Compound I ethylenediamine Materials A+B, 6-(3-chloro-4-cyclopropoxyphenyl)pyrimidine-4-carboxylic acid]: in data set [1], the “Observation (deliquescence)” value is recorded as “no deliquescence”. The “aqueous solubility (in words)” value in data set [2] is reported as “suitable aqueous solubility”. Moreover, the solubility in data set [2] (setting [8]) is reported as <10 mg/mL. The “Result (XRPD of remaining solids)” value in data set [3] (listed as Compound I ethylenediamine A+B) is “disproportionated”; in data set [3] (setting [8]), “Ethylenediamine B + Free Acid C”.

For the compound `O=C(O)c1cc(-c2ccc(OC3CC3)c(Cl)c2)ncn1` [Compound I benzathine Form A, 6-(3-chloro-4-cyclopropoxyphenyl)pyrimidine-4-carboxylic acid], in data set [1] (listed as Benzathine A), the “Result (XRPD after exposure)” value is recorded as “Benzathine A”. The “Observation (deliquescence)” value in data set [1] is recorded as “no deliquescence”. Moreover, the “aqueous solubility (in words)” value in data set [2] was “poor low aqueous solubility”. Besides, the solubility in data set [2] (listed as Benzathine A) is <7 mg/mL. Besides, the “Result (XRPD of remaining solids)” value is recorded as “remained unchanged by XRPD” in data set [3] and “Benzathine A” in data set [3] (listed as Benzathine A).

Regarding `O=C(O)c1cc(-c2ccc(OC3CC3)c(Cl)c2)ncn1` [Compound I sodium Pattern A, 6-(3-chloro-4-cyclopropoxyphenyl)pyrimidine-4-carboxylic acid], the solubility in data set [4] (organic solvent or mixture, 2-MeTHF) was < 1100 µg/mL; in data set [4] (organic solvent or mixture, ACN), < 1200 µg/mL; in data set [4] (organic solvent or mixture, Acetone) it was < 1300 µg/mL; in data set [4] (organic solvent or mixture, BuOH), < 1200 µg/mL; in data set [4] (organic solvent or mixture, DCM), < 1300 µg/mL; in data set [4] (organic solvent or mixture, DMF), 5800 to 7700 µg/mL. Further, the solubility in data set [4] (organic solvent or mixture, DMSO) was 7500 to 11300 µg/mL; in data set [4] (organic solvent or mixture, EtOAc) it was < 1100 µg/mL; in data set [4] (organic solvent or mixture, EtOH), < 1300 µg/mL; in data set [4] (organic solvent or mixture, Heptane), < 1200 µg/mL; in data set [4] (organic solvent or mixture, IPA), < 1100 µg/mL; in data set [4] (organic solvent or mixture, IPAc), < 1100 µg/mL. For the same compound, the solubility was < 1300 µg/mL in data set [4] (organic solvent or mixture, MEK); < 1200 µg/mL in data set [4] (organic solvent or mixture, MIBK); < 1100 µg/mL in data set [4] (organic solvent or mixture, MTBE); 5000 to 6700 µg/mL in data set [4] (organic solvent or mixture, MeOH); 10300 to 20500 µg/mL in data set [4] (organic solvent or mixture, NMP); < 1300 µg/mL in data set [4] (organic solvent or mixture, THF). Also, the solubility was < 1100 µg/mL in data set [4] (organic solvent or mixture, Toluene); < 1200 µg/mL in data set [4] (organic solvent or mixture, c-Hexane); 10000 to 20000 µg/mL in data set [4] (Water). Also, in data set [5], the “hygroscopicity by DVS analysis (in words)” value is reported as “hygroscopic”. Besides, in data set [5] (DVS analysis), the “deliquescence (in words)” value is recorded as “did not show any indications of deliquescence”. Besides, in data set [5] (after DVS), the “material recovered from the DVS analysis compared with starting material by XRPD” value was “substantially the same as the starting material”. The results for the DVS weight gain result in data set [5] (at 60% RH) and in data set [5] (at 90% RH) were “about 4.9%” and “about 21.2%”, respectively. For the same compound, the XRPD result was “Amorphous” in data set [6] (ACN slurry, 12 days, dry); “Amorphous” in data set [6] (ACN slurry, 12 days, wet); “Low” in data set [6] (DCM slurry, 12 days, dry); “Low” in data set [6] (DCM slurry, 12 days, wet); “Amorphous” in data set [6] (EtOAc slurry, 5 days); “Amorphous” in data set [6] (EtOH slurry, 5 days). For the same compound, the XRPD result in data set [6] (THF slurry, 5 days) is given as “Amorphous”; in data set [6] (THF slurry, 12 days, dry), “Amorphous”; in data set [6] (THF slurry, 12 days, wet) it was “Amorphous”. Also, the “form conversion in slurry / trituration” value in data set [6] (acetone and/or isopropanol (trituration, single form or competitive slurry)) is recorded as “converted to Compound I sodium Form B”; in data set [6] (solvent systems with high water activity), “rehydrated to Compound I Form E”. Also, the “relative stability of the form (in words)” value in data set [6] (at the conditions evaluated) was “metastable relative to Compound I sodium Form B”. Also, the “stability in slurry (in words)” value in data set [6] (water, toluene, DCM and MEK) was “stable as a single form for about five days”. Further, the “chemical and physical form changes after storing at elevated temperature” value in data set [7] (about 60° C.) was “No chemical and physical form changes were observed”. The HPLC in data set [7] (after storage at 60 ° C. (time point not given)) was >99.9 % AUC.
